Experimental data as given in patent publication US20260193268A1, “TRICYCLIC PI3Ka INHIBITOR, PREPARATION METHOD THEREFOR, AND PHARMACEUTICAL USE THEREOF” (WIGEN BIOMEDICINE TECHNOLOGY (SHANGHAI) CO., LTD., priority 2022, published 2026).
Where two headings read alike, the source gives them in different places.

Legend:
[1] = system: HCC1954 cells (with PI3Kα H1047R mutation); assay: In vitro inhibition of HCC1954 cell proliferation (CellTiter-Lumi); format: cell-based; conditions: Homo sapiens, HCC1954, 144 h
Protocol: Assay for In Vitro Inhibition of HCC1954 Cell Proliferation by Compounds of the Present Disclosure
The growth of the cells was evaluated, and the IC50 for the inhibition of cell growth by the compounds was calculated.

[2] = system: MCF-7 cells (with PI3Kα E545K mutation); assay: In vitro inhibition of MCF-7 cell proliferation (CellTiter-Lumi); format: cell-based; conditions: Homo sapiens, MCF7, 144 h
How it was run: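 Growth IC50 derived from ATP luminescence (CellTiter-Lumi) after 144 h exposure of MCF-7 cells carrying PI3Kα E545K, plated 2000 cells/well and dosed with serial dilutions one day after seeding.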

[3] = HCC1954 cells, 144 h, CellTiter-Lumi, numeric values, read-out: Inhibitory activity against HCC1954 cells (IC50)
[4] = numeric values, read-out: Inhibitory activity against MCF-7 cells (IC50)
[5] = HCC1954 cells, 144 h, CellTiter-Lumi, class symbols, read-out: Inhibitory activity against HCC1954 cells (IC50), class symbols
[6] = class symbols, read-out: Inhibitory activity against MCF-7 cells (IC50), class symbols

Structure (SMILES) | IC50 [1, 3] [nM] | IC50 [2, 4] [nM] | IC50 [1, 5] [nM] | IC50 [2, 6] [nM] | IC50 ([1]; read-out: Inhibitory activity against HCC1954 cells (IC50), class symbols) [nM]
C=CC(=O)N1CCN(CCC(=O)N2CCN(c3ccc4c(c3)-c3nc(N5C(=O)OC[C@H]5C(F)F)cn3CCO4)CC2)CC1 [Compound 13] | 862 | 40 | – | – | –
CC(C)(C=C(C#N)C(=O)Nc1ccc(N2CC(N3CCN(c4ccc5c(c4)-c4nc(N6C(=O)OC[C@H]6C(F)F)cn4CCO5)CC3)C2)cc1)NC1(C)COC1 [Compound 380] | – | – | < 50 | < 50 | –
CCC(N)(C=C(C#N)C(=O)Nc1ccc(N2CC(N3CCN(c4ccc5c(c4)-c4nc(N6C(=O)OC[C@H]6C(F)F)cn4CCO5)CC3)C2)cc1)CC [Compound 395] | – | – | < 50 | < 50 | –
CNc1cc2c(cc1N1CCN(C3CN(c4ccc(NC(=O)C(C#N)=CC(C)(C)C)cc4)C3)CC1)-c1nc(N3C(=O)OC[C@H]3C(F)F)cn1CCO2 [Compound 319] | – | – | < 50 | < 50 | –
Cc1nc(NC(=O)N2CCC[C@H]2C(N)=O)sc1-c1ccnc(C(C)(C)C(F)(F)F)c1 [Alpelisib, reference compound] | 1610 | 216 | – | – | –
CC(C)(O)C=C(C#N)C(=O)Nc1cnc(N2CC(N3CCN(c4ccc5c(c4)-c4nc(N6C(=O)OC[C@H]6C(F)F)cn4CCO5)CC3)C2)nc1 [Compound 266] | – | – | < 50 | < 50 | –
C=CC(=O)N1CC(N2CC[C@@H](CN3CCN(c4ccc5c(c4)-c4nc(N6C(=O)OC[C@H]6C(F)F)cn4CCO5)CC3)C2)C1 [Compound 87] | 318 | 37 | – | – | –
C=CC(=O)N1CC(C2CCN(c3ccc(-c4ccc5c(c4)-c4nc(N6C(=O)OC[C@H]6C(F)F)cn4CCO5)cc3)CC2)C1 [Compound 199] | – | – | 100 to 1000 | < 50 | –
CNC(C)(C)C=C(C#N)C(=O)Nc1cnc(N2CC(N3CCN(c4ccc5c(c4)-c4nc(N6C(=O)OC[C@H]6C(F)F)cn4CCO5)CC3)C2)nc1 [Compound 261] | – | – | < 50 | < 50 | –
CC(C)(C=C(C#N)C(=O)Nc1ccc(N2CC(N3CCN(c4ccc5c(c4)-c4nc(N6C(=O)OC[C@H]6C(F)F)cn4CCO5)CC3)C2)c(Cl)c1)NC1COC1 [Compound 353] | – | – | < 50 | < 50 | –
CNCC#CC(=O)Nc1ccc(N2CC(N3CCN(c4ccc5c(c4)-c4nc(N6C(=O)OC[C@H]6C(F)F)cn4CCO5)CC3)C2)cc1 [Compound 185] | – | – | < 50 | < 50 | –
COCCN1CCN(C(C)(C)C=C(C#N)C(=O)Nc2ccc(N3CC(N4CCN(c5ccc6c(c5)-c5nc(N7C(=O)OC[C@H]7C(F)F)cn5CCO6)CC4)C3)cc2)CC1 [Compound 305] | – | – | < 50 | < 50 | –
CC(C)OC(=O)OCOP(=O)(OCNC(C)(C)C=C(C#N)C(=O)Nc1ccc(N2CC(N3CCN(c4ccc5c(c4)-c4nc(N6C(=O)OC[C@H]6C(F)F)cn4CCO5)CC3)C2)cc1)OCOC(=O)OC(C)C [Compound 334] | – | – | < 50 | < 50 | –
C=CC(=O)Nc1ccc(N2CCN(CC#Cc3ccc4c(c3)-c3nc(N5C(=O)OC[C@H]5C(F)F)cn3CCO4)CC2)cc1 [Compound 182] | – | – | 50 to 100 | 50 to 100 | –
CNC(C)(C)C=C(C#N)C(=O)Nc1ccc(N2CC(N3CCN(c4ccc5c(c4)-c4nc(N6C(=O)OC[C@H]6C(F)F)cn4CCO5)CC3)C2)cc1Cl [Compound 359] | – | – | < 50 | < 50 | –
C=CC(=O)N1CCN(CCCC(=O)N2CCN(c3ccc4c(c3)-c3nc(N5C(=O)OC[C@H]5C(F)F)cn3CCO4)CC2)CC1 [Compound 15] | 128 | 14 | – | – | –
CNC/C=C/C(=O)Nc1ccc(N2CC(N3CCN(c4ccc5c(c4)-c4nc(N6C(=O)OC[C@H]6C(F)F)cn4CCO5)CC3)C2)cc1 [Compound 186] | 32 | 4.3 | – | – | –
CCOP(=O)(OCC)OC(C)(C)C=C(C#N)C(=O)Nc1ccc(N2CC(N3CCN(c4ccc5c(c4)-c4nc(N6C(=O)OC[C@H]6C(F)F)cn4CCO5)CC3)C2)cc1 [Compound 342] | – | – | – | < 50 | < 50
N#CC(=CC1CC1)C(=O)Nc1ccc(N2CC(N3CCN(c4ccc5c(c4)-c4nc(N6C(=O)OC[C@H]6C(F)F)cn4CCO5)CC3)C2)nc1 [Compound 245] | – | – | < 50 | < 50 | –
CC(C)(C=C(C#N)C(=O)Nc1ccc(N2CC(N3CCN(c4ccc5c(c4)-c4nc(N6C(=O)OC[C@H]6C(F)F)cn4CCO5)CC3)C2)cc1)NCC1COC1 [Compound 381] | – | – | < 50 | < 50 | –
CC=C(C#N)C(=O)Nc1ccc(N2CC(N3CCN(c4ccc5c(c4)-c4nc(N6C(=O)OC[C@H]6C(F)F)cn4CCO5)CC3)C2)c(F)c1 [Compound 236] | – | – | < 50 | < 50 | –
CN(C)C/C=C/C(=O)Nc1ccc(N2CC(N3CCN(c4ccc5c(c4)-c4nc(N6C(=O)OC[C@H]6C(F)F)cn4CCO5)CC3)C2)cc1Cl [Compound 365] | – | – | < 50 | < 50 | –

Structure (SMILES) | IC50 [1, 3] [nM] | IC50 [2, 4] [nM] | IC50 [1, 5] [nM] | IC50 [2, 6] [nM] | IC50 ([1]; read-out: Inhibitory activity against HCC1954 cells (IC50), class symbols) [nM]
CC(C)(C)C=C(C#N)C(=O)Nc1ccc(N2CC(N3CCN(c4ccc5c(c4)-c4nc(N6C(=O)OC[C@H]6C(F)F)c(F)n4CCO5)CC3)C2)cc1 [Compound 321] | – | – | < 50 | < 50 | –
N#CC(=Cc1ccccc1)C(=O)Nc1ccc(N2CC(N3CCN(c4ccc5c(c4)-c4nc(N6C(=O)OC[C@H]6C(F)F)cn4CCO5)CC3)C2)cc1 [Compound 394] | – | – | < 50 | < 50 | –
C=CC(=O)Nc1ccc(N2CC(N3CCN(c4ccc5c(c4)-c4nc(N6C(=O)CC[C@H]6C(F)F)cn4CCO5)CC3)C2)cc1 [Compound 178] | – | – | < 50 | < 50 | –
C=CC(=O)N1CCN(CCCCN2CCN(c3ccc4c(c3)-c3nc(N5C(=O)OC[C@H]5C(F)F)cn3CCO4)CC2)CC1 [Compound 26] | 248 | 83 | – | – | –
C=CC(=O)Nc1ccc(N2CC[C@H](CN3CCN(c4ccc5c(c4)-c4nc(N6C(=O)OC[C@H]6C(F)F)cn4CCO5)CC3)C2)cc1 [Compound 20] | 438 | 69 | – | – | –
C=CC(=O)Nc1ccc(N2CC(N3CCN(c4ccc5c(c4)-c4nc(N6C(=O)OC[C@H]6C(F)F)cn4CCO5)CC3)C2)c(C)c1 [Compound 129] | 6.9 | 0.3 | – | – | –
C=CC(=O)N1CCC(N2CC[C@H](CN3CCN(c4ccc5c(c4)-c4nc(N6C(=O)OC[C@H]6C(F)F)cn4CCO5)CC3)C2)CC1 [Compound 59] | 872 | 197 | – | – | –
C=CC(=O)N1CCC(CCC(=O)N2CCN(c3ccc4c(c3)-c3nc(N5C(=O)OC[C@H]5C(F)F)cn3CCO4)CC2)CC1 [Compound 7] | 925 | 106 | – | – | –
COC(C)(C)C=C(C#N)C(=O)Nc1ccc(N2CC(N3CCN(c4ccc5c(c4)-c4nc(N6C(=O)OC[C@H]6C(F)F)cn4CCO5)CC3)C2)cc1 [Compound 212] | – | – | < 50 | < 50 | –
CN(C)C/C=C/C(=O)Nc1ccc(N2CC(N3CCN(c4ccc5c(c4)-c4nc(N6C(=O)OC[C@H]6C(F)F)cn4CCO5)CC3)C2)nc1 [Compound 285] | – | – | < 50 | < 50 | –
CC(C)(C=C(C#N)C(=O)Nc1ncc(N2CC(N3CCN(c4ccc5c(c4)-c4nc(N6C(=O)OC[C@H]6C(F)F)cn4CCO5)CC3)C2)cn1)NC1COC1 [Compound 293] | – | – | < 50 | < 50 | –
N#CC(=CC1CC1)C(=O)Nc1cnc(N2CC(N3CCN(c4ccc5c(c4)-c4nc(N6C(=O)OC[C@H]6C(F)F)cn4CCO5)CC3)C2)nc1 [Compound 263] | – | – | < 50 | < 50 | –
N#CC(=CC1CCCN1)C(=O)Nc1cnc(N2CC(N3CCN(c4ccc5c(c4)-c4nc(N6C(=O)OC[C@H]6C(F)F)cn4CCO5)CC3)C2)nc1 (stereo partly shown) [Compound 270] | – | – | < 50 | < 50 | –
CC(C)(N)C=C(C#N)C(=O)Nc1ncc(N2CC(N3CCN(c4ccc5c(c4)-c4nc(N6C(=O)OC[C@H]6C(F)F)cn4CCO5)CC3)C2)cn1 [Compound 294] | – | – | < 50 | < 50 | –
C=CC(=O)Nc1ccc(N2CCC(CN3CCN(c4ccc5c(c4)-c4nc(N6C(=O)OC[C@H]6C(F)F)cn4CCO5)CC3)CC2)cc1 [Compound 12] | 399 | 49 | – | – | –
CC(C)(C=C(C#N)C(=O)Nc1cnc(N2CC(N3CCN(c4ccc5c(c4)-c4nc(N6C(=O)OC[C@H]6C(F)F)cn4CCO5)CC3)C2)nc1)N1CCOCC1 [Compound 258] | – | – | < 50 | < 50 | –
CC(C)(C=C(C#N)C(=O)Nc1ccc(N2CC(N3CCN(c4ccc5c(c4)-c4nc(N6C(=O)OC[C@H]6C(F)F)cn4CCO5)CC3)C2)cc1)N1CCC1 [Compound 171] | 14 | 4.5 | – | – | –
CNC1(C=C(C#N)C(=O)Nc2cnc(N3CC(N4CCN(c5ccc6c(c5)-c5nc(N7C(=O)OC[C@H]7C(F)F)cn5CCO6)CC4)C3)nc2)CC1 [Compound 273] | – | – | < 50 | < 50 | –
C=CC(=O)N1CCc2cc(N3CC(N4CCN(c5ccc6c(c5)-c5nc(N7C(=O)OC[C@H]7C(F)F)cn5CCO6)CC4)C3)c(F)cc21 [Compound 177] | 2.2 | 0.1 | – | – | –
C=CC(=O)Nc1ccc(N2CC[C@@H](CN3CCN(c4ccc5c(c4)-c4nc(N6C(=O)OC[C@H]6C(F)F)cn4CCO5)CC3)C2)cc1 [Compound 85] | 303 | 88 | – | – | –
C=CC(=O)Nc1ccc(N2CC(N3CCN(c4ccc5c(c4)-c4nc(-c6nc(C)nn6C(C)C)cn4CCO5)CC3)C2)nc1 [Compound 379] | – | – | < 50 | < 50 | –
CN(C1COC1)C(C)(C)C=C(C#N)C(=O)Nc1ccc(N2CC(N3CCN(c4ccc5c(c4)-c4nc(N6C(=O)OC[C@H]6C(F)F)cn4CCO5)CC3)C2)cn1 [Compound 289] | – | – | < 50 | < 50 | –
